# Laboratory results reported in patent publication US20040138272A1, “1,4-Substituted cyclohexane derivatives” (priority 2002, published 2004).
# Target: T1, human Rho kinase II (ROCK-II (h)) (Homo sapiens, UniProt O75116)
# T1 construct: purchased
# Test: Commercial inhibition assay with recombinant human ROCKII, IC50 curves (FIGS. 8, 9)
# Type: biochemical
# Description: Referring to FIGS. 8 and 9 inhibiton of ROCKII activity and determination of IC50 may also be done throught the use of known (i.e. commercial) inhibition assays that use recombinant human ROCKII.
# T1 sequence (O75116 whole entry): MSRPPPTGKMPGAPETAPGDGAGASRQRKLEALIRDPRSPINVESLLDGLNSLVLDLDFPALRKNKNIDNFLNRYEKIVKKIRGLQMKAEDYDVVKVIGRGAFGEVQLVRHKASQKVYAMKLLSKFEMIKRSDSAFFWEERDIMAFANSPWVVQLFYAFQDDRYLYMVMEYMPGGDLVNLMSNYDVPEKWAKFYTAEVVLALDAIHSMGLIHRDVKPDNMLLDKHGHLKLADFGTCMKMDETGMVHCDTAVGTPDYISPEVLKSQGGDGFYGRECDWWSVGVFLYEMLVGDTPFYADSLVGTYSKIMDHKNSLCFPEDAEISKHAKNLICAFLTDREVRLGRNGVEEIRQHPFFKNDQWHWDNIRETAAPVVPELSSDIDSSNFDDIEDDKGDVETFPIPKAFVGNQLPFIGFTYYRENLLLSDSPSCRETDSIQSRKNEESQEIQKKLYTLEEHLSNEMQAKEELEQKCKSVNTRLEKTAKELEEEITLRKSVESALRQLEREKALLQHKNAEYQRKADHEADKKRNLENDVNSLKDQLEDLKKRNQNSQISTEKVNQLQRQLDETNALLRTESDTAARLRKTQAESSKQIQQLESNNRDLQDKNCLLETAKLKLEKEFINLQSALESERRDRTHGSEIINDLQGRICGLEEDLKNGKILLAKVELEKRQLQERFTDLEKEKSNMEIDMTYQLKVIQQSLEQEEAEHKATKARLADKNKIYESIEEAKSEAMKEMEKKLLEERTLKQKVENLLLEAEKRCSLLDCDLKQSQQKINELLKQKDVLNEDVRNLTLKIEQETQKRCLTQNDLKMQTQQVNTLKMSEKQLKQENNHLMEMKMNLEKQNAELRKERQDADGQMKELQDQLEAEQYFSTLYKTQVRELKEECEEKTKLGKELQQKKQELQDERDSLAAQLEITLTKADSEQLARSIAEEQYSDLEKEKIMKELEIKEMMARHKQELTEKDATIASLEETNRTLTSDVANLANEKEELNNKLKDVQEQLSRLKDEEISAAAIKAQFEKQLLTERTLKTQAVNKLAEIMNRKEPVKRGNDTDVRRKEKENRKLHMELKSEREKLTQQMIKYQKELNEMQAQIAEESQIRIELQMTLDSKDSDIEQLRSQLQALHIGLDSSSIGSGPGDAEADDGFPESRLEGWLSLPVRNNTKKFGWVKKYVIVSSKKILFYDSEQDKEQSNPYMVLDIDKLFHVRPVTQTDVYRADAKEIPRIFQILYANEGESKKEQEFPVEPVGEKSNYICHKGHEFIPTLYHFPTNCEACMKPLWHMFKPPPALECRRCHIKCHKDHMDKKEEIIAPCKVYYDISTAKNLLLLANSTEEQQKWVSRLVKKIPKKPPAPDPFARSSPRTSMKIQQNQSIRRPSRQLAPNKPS
substance,measurement,value
(R)-trans-4-(But-3′-en-1′-amino)-N-(4″-pyridyl)cyclohexane Carboxamide Dihydrochloride [BA-1016],IC50,1900 nM
